# Data taken from patent US20100279930A1, “HUMAN PANCREATIC POLYPEPTIDE (HPP) ANALOGUES AND THEIR EFFECTS ON FEEDING BEHAVIOUR” (priority 2007, published 2010).
# No end group written: not given here.
# Columns and labels:
# [1] = target: human Y4 receptor (Homo sapiens, UniProt P50391); assay: Human Y Receptor-4 Displacement Assay; conditions: for binding to the Y4 receptor compared with code 6672: comparator compound of SEQ ID NO:72 (code 6672)
# Source text: Human Y Receptor-4 Displacement Assay:
# The principle of the displacement assay is a fixed quantity of radiolabeled ligand competes with varying doses of a ‘cold’ (non-labelled) ligand for a limited number of receptor binding sites, enabling quantification of the affinity of the cold ligand to the receptor.
# The cDNA clone was transformed into competent E.coli so a larger preparation of DNA could be produced which was transfected into HEK-293T cells. Using antibiotics, cells expressing the transfected cDNA were selected for, and those cells containing the receptor plasmid were scaled up for a cell membrane preparation. Cells were harvested from culture flasks by scraping, and then homogenized and the membrane separated from other cellular material by differential centrifugation.
# For the displacement assay all reagents are prepared in displacement assay buffer (25 mM HEPES pH 7.4, 2 mM MgCl2, 4 mM CaCl2 1% BSA, 4 mM) containing protease inhibitors (2 mM phenylmethanesulphonylfluoride, 0.5 mM diprotin A and 0.5 mM phosphoramidon). One thousand counts/sec/tube ^I125PP (iodinated by the direct iodogen method) is used as the radiolabeled peptide, and the competing peptide is tested at varying concentrations between 10 uM and 0.02 pM, with each concentration tested in a minimum of duplicate. To each assay tube a volume of the prepared membrane, enough for total counts (where no competing peptide is present) of 10000-15000 counts/240 second is added. Reagents are added in the following order: buffer, label competing peptide and cell membrane, with a total volume is 500 μl.
# The assay is incubated at room temperature for 90 minutes before the receptor-^125PP complex is separated from free label by centrifugation at 15600 g for 3 minutes. The supernatant is removed and discarded and the pellet resuspended and washed with 500 μl fresh assay buffer and re-centrifuged. After centrifugation and removal of supernatant the radioactivity of the pellet was measured for 240 seconds using a γ-counter. Specific binding is calculated as the difference between the amount of ^125I-PP bound in the absence (total) and presence (non-specific) of unlabelled peptide. From the binding data, an IC50 for the competing peptide is calculated. Each peptide is tested on a minimum of two separate occasions.
# [2] = target: T1, Y5 receptor (Homo sapiens, UniProt Q15761); conditions: cited from earlier work
# T1 sequence (Q15761 1-445): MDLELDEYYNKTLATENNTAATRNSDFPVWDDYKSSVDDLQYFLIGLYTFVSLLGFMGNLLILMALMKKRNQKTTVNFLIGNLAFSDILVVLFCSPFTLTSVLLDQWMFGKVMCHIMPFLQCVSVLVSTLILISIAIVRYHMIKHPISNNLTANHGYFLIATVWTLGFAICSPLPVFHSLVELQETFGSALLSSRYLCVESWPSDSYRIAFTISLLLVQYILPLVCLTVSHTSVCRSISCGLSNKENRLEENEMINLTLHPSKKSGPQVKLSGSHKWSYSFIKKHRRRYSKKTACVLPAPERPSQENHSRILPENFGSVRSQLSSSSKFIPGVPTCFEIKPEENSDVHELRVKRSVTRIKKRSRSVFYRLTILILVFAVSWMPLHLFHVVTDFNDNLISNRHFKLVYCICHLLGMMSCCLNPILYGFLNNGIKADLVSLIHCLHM
# [3] = injected intracerebroventricularly; cited from earlier work
# [4] = tested on: mice; conditions: peripheral administration; cited from earlier work
# [5] = tested on: Male C57BL/6 mice; assay: In vivo food intake experiments in mice (half-life in the blood judged from appetite suppression); parameters: species or system mouse; conditions: comparator native human PP; judged from food intake reduction in mice (4-8 h, 0-24 h, 4:1 or 24:1 ratio)
# Method: In Vivo Food Intake Experiments
# Male C57BL/6 mice (20-30 g) were used for all mouse experiments. Mice were individually housed in IVC cages. Animals were randomized by weight and fasted overnight for 16 hrs before intraperitoneal injection at 9 am. All peptide solutions were prepared freshly the morning of the study and injected as 100 ul. Food intake was measured at 1, 2, 3, 4, 6, 8 and 24 hours post injection. The peptide was dosed at 30 nmol/kg, 50 nmol/kg, 100 nmol/kg, 120 nmol/kg, 150 nmol/kg, 300 nmol/kg, 600 nmol/kg or 1000 nmol/kg depending on the activity. In each case, a control of saline and a control of unmodified human Pancreatic Polypeptide was carried out. All statistics are calculated using a one-way ANOVA with Dunnett's post-test or one-way ANOVA with Bonferroni post-test.
# A control of saline was used.
# FIG. 2 and in the comparative graph of FIG. 3. […] It is hypothesized that that is as a possible result of stronger activity at the receptor and longer activity.
# The mouse is a good model for degradation rates in humans, irrespective of the fact that the receptors for PP in mice are different from the human receptor.
# [6] = tested on: healthy volunteers; conditions: cited from earlier work
# [7] = tested on: children with Prader-Willi syndrome; conditions: 100 pmol/kg/h for 90 minutes; cited from earlier work
# human Y4 receptor, sequence (P50391 whole entry): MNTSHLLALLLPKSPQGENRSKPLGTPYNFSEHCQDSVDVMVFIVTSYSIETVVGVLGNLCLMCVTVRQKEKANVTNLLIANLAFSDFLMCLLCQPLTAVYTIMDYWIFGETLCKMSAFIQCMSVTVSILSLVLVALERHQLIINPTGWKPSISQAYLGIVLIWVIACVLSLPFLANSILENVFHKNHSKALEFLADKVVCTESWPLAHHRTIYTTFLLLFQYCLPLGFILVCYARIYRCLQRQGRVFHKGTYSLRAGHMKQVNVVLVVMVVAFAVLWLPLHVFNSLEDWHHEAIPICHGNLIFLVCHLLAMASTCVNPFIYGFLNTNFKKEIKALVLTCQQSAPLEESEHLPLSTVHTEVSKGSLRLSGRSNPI
substance,measurement,setting,value
7218 (AAPLEPVYPGDNATPEQMAQYAADLRRYINKLTRPRY) [compound 7218],binding to the Y4 receptor compared with codes 6433 and 4055855,"[1]; comparators SEQ ID NO:9 (Ala 0, code 6433) and SEQ ID NO:281 (Lys 30, code 4055855)",binds the Y4 receptor better
7215 (AAPLEPVYPGDNATPEQMAQYAAALRRYINKLTRPRY) [compound 7215],binding at the Y4 receptor compared with code 7214,[1]; comparator SEQ ID NO:167 (code 7214),still further better binding at the Y4 receptor
[RYYSA^19-23]PP,affinity to the Y5-receptor,[2],strong affinity
same,effect on food intake,[3],strong stimulatory effect on food intake
6675 (KPLEPVYPGDNATPEELNRYYASLRRYINMLTRPRY) [compound 6675],binding to the Y4 receptor compared with code 6672,[1],stronger binders
"mouse PP: mouse Pancreatic Polypeptide, literature (APLEPMYPGDYATPEQMAQYETQLRRYINTLTRPRY; ends and bridges not checked; UniProt P10601 30-65, looked up)","effect on energy balance, food intake and energy expenditure",[4],induce a negative energy balance by decreasing food intake and stimulating energy expenditure
4059668 (GAPLEPHFPGDNATPEEMAKYAAELRRYINKLTRPRY; synthetic hPP analogue peptide) [compound 4059668],half-life in the blood compared with native human PP,[5],longer half-life
6435 (KPLEPVYPGDNATPEQMAQYAADLRRYINMLTRPRY) [compound 6435],half-life in the blood compared with native human PP,[5],longer half-life
[K^4]PP,affinity to the Y5-receptor,[2],strong affinity
same,effect on food intake,[3],strong stimulatory effect on food intake
"2-36[K^4, RYYSA^19-23]PP",affinity to the Y5-receptor,[2],strong affinity
same,effect on food intake,[3],strong stimulatory effect on food intake
6674 (KPLEPVYPGDNATPEELNRYYASLRRYINMLTRPRY) [compound 6674],binding to the Y4 receptor compared with code 6672,[1],stronger binders
Ala Pro Leu Glu Pro Val Tyr Pro Gly Asp Asn Ala Thr Pro Glu Gln Met Ala Gln Tyr Ala Ala Asp Leu Arg Arg Tyr Ile Asn Met Leu Thr Arg Pro Arg Tyr NH2 [native human PP],reduction in energy intake,[6]; infusion 5 pmol/kg/min (300 pmol/kg/h) for 90 minutes,11%
same,effect on appetite and food intake,[6]; infusion 10 pmol/kg/min (600 pmol/kg/h) for 90 minutes,reduce appetite and food intake
same,decrease in 24 hour cumulative energy intake,[6]; infusion 10 pmol/kg/min for 90 minutes,25%
same,effect on appetite,[7],no effect on appetite
